# Laboratory results as given in paper PMC2994747, “Molecular Characterization of c-Abl/c-Src Kinase Inhibitors Targeted against Murine Tumour Progenitor Cells that Express Stem Cell Markers” (PLoS ONE, 2010).
# Like-named read-outs stand apart in the source and are kept apart here.
# Tests used:
# A549 [1] = test: MTS cell viability assay; type: cell-based, human
# How it was run: (§1)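 CaCo2, HepG2, A549 and murine NSCLC lines grown in DMEM/10% FCS at 37°C, treated in triplicate with inhibitors or vehicle (0.2% DMSO) for 24 h or 96 h. MTS reagent added for 1 h; absorbance read at 490 nm.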
# CaCo2 [2] = test: MTS cell viability assay; type: cell-based, human
# How it was run: as §1
# HepG2 = test: MTS cell viability assay; type: cell-based, human
# How it was run: as §1
# BetaD5 = test: Western blot, semi-quantitative protein expression; type: cell-based, mouse
# Method: (§2) For the Western Blot analysis, cells were rinsed and lysed as previously described. An amount of 25 µg protein was used for SDS-PAGE. Antibodies for c-Abl (sc-131), Actin (sc-1616), Cdc2-p34 (sc-8395), EPS15 (sc-1840), FAK (sc-558), c-Fos (sc-52), p38 (sc-7972), p53 (sc-6243) and STAT5 (sc-835x) were obtained from Santa Cruz (Santa Cruz Biotechnology, Heidelberg, Germany), while c-Src (2109) and phospho-Src Y416 (2101) were purchased from Cell Signaling (Cell Signaling Technology, Frankfurt a. M., Germany). The EGFR (06-847), phospho-EGFR Y992 (07-821) and phospho-EGFR Y1045 (04-284) stem from Upstate (Upstate, Schwalbach, Germany) and the hnRNP-K (A300-676A) from Bethyl Labs (Bethyl Laboratories, Montgomery, Texas, USA). Finally p73 (IMG-246) was supplied by Imgenex (Imgenex, Hamburg, Germany). Depending on the primary antibody the secondary antibodies were either horseradish peroxidase-conjugated anti-mouse (AP 160P), anti-rabbit (AP 132P) or anti-sheep (AP 147P) (Chemicon, Schwalbach, Germany).
# (§3) Semi-quantitative analysis were carried out with Kodak 1D Image Analysis Software in reference to the vehicle treated control cells (see supplementary table S7).
# A549 [3] = test: Western blot, semi-quantitative protein expression; type: cell-based, human
# Method: as §2, §3
# CaCo2 [4] = test: Western blot, semi-quantitative protein expression; type: cell-based, human
# Method: as §2, §3
# [5] = test system: murine and human cell lines; test: Whole genome expression analysis, statements over several cell lines; type: cell-based
# Method: The cells were harvested and RNA was isolated using RNeasy Mini Kit (Qiagen, Hilden, Germany) according to the instructions of the manufacturer. The isolated RNA (250 ng) was processed further using standard protocols as described recently with the exception of the 3′ IVT Express Kit (Affymetrix, High Wycombe, UK) that was utilized according to instructions. Quality control of cRNA was done with the Agilent 2100 Bioanalyzer (Agilent Tech according to manufacturer's protocols. Following fragmentation, cRNA of each sample was hybridized to Affymetrix GeneChip® Mouse Genome 430 2.0 or Human Genome U133 Plus 2.0 and scanned with an Affymetrix 3000 7G scanner.
# The resultant data was normalized by Probe Logarithmic Intensity Error Estimation (PLIER) algorithm. Statistical analysis was carried out with the ArrayTrack software (National Center for Toxicological Research/FDA, Jefferson, AR, USA) using SAM algorithm.
# [6] = 24 h, read-out: Calculated IC50 after single treatment for 24 h
# [7] = 96 h, read-out: Calculated IC50 after daily treatment for 96 h
smiles,measurement,setting,value
CSc1nc(NCCc2ccc(Cl)cc2)c2cnn(CC(Cl)c3ccccc3)c2n1 (stereo not shown) [Si57],IC50,A549 [1]; [6],43.4 ± 8 µM
same,IC50,A549 [1]; [7],8.3 ± 0.4 µM
same,IC50,CaCo2 [2]; [6],77.1 ± 7.5 µM
same,IC50,CaCo2 [2]; [7],6.8 ± 1.5 µM
same,IC50,HepG2; [6],77.2 ± 7.5 µM
same,IC50,HepG2; [7],25.5 ± 4.8 µM
same,Actin protein expression,BetaD5,98
same,EGFR Y992-p protein expression,BetaD5,116
same,EGFR Y1045-p protein expression,BetaD5,65
same,EGFR protein expression,BetaD5,61
same,EPS15 protein expression,BetaD5,781
same,FAK protein expression,BetaD5,98
same,STAT5 protein expression,BetaD5,192
same,c-Abl protein expression,BetaD5,89
same,c-Fos protein expression,BetaD5,58
same,c-Src Y416-p protein expression,BetaD5,19
same,c-Src protein expression,BetaD5,153
same,hnRNP-K protein expression,BetaD5,126
same,p38 protein expression,BetaD5,76
same,p53 protein expression,BetaD5,248
same,Actin protein expression,A549 [3],92
same,Cdc2-p34 protein expression,A549 [3],55
same,EGFR Y992-p protein expression,A549 [3],58
same,EGFR Y1045-p protein expression,A549 [3],6.66
same,EGFR protein expression,A549 [3],9
same,EPS15 protein expression,A549 [3],70
same,FAK protein expression,A549 [3],154
same,STAT5 protein expression,A549 [3],34
same,c-Abl protein expression,A549 [3],43
same,c-Fos protein expression,A549 [3],49
same,c-Src Y416-p protein expression,A549 [3],65
same,c-Src protein expression,A549 [3],100
same,hnRNP-K protein expression,A549 [3],83
same,p38 protein expression,A549 [3],27
same,p53 protein expression,A549 [3],33
same,p73 protein expression,A549 [3],24
same,Actin protein expression,CaCo2 [4],131
same,Cdc2-p34 protein expression,CaCo2 [4],119
same,EGFR Y992-p protein expression,CaCo2 [4],163
same,EGFR Y1045-p protein expression,CaCo2 [4],259
same,EGFR protein expression,CaCo2 [4],37
same,EPS15 protein expression,CaCo2 [4],122
same,FAK protein expression,CaCo2 [4],111
same,STAT5 protein expression,CaCo2 [4],123
same,c-Abl protein expression,CaCo2 [4],217
same,c-Fos protein expression,CaCo2 [4],129
same,c-Src Y416-p protein expression,CaCo2 [4],155
same,c-Src protein expression,CaCo2 [4],106
same,hnRNP-K protein expression,CaCo2 [4],98
same,p38 protein expression,CaCo2 [4],84
same,p53 protein expression,CaCo2 [4],70
same,p73 protein expression,CaCo2 [4],78
Clc1cccc(Nc2nc(SC3CCCC3)nc3c2cnn3CC(Cl)c2ccccc2)c1 (stereo not shown) [Si135],IC50,"A549 [1]; Homo sapiens, A549, 24 h, 24 h, read-out: Calculated IC50 after single treatment for 24 h",26.1 ± 2.6 µM
same,IC50,"A549 [1]; Homo sapiens, A549, 96 h, 96 h, read-out: Calculated IC50 after daily treatment for 96 h",2.7 µM
same,IC50,"CaCo2 [2]; Homo sapiens, Caco-2, 24 h, read-out: Calculated IC50 after single treatment for 24 h",64.6 ± 10.3 µM
same,IC50,"CaCo2 [2]; Homo sapiens, Caco-2, 96 h, read-out: Calculated IC50 after daily treatment for 96 h",2.1 ± 0.2 µM
same,IC50,"HepG2; Homo sapiens, 24 h, read-out: Calculated IC50 after single treatment for 24 h",64.6 ± 10.3 µM
same,IC50,"HepG2; Homo sapiens, 96 h, read-out: Calculated IC50 after daily treatment for 96 h",20.9 ± 1.8 µM
same,Actin protein expression,BetaD5,92
same,EGFR Y992-p protein expression,BetaD5,68
same,EGFR Y1045-p protein expression,BetaD5,148
same,EGFR protein expression,BetaD5,116
same,EPS15 protein expression,BetaD5,759
same,FAK protein expression,BetaD5,114
same,STAT5 protein expression,BetaD5,163
same,c-Abl protein expression,BetaD5,101
same,c-Fos protein expression,BetaD5,98
same,c-Src Y416-p protein expression,BetaD5,20
same,c-Src protein expression,BetaD5,135
same,hnRNP-K protein expression,BetaD5,115
same,p38 protein expression,BetaD5,56
same,p53 protein expression,BetaD5,119
same,Actin protein expression,A549 [3],98
same,Cdc2-p34 protein expression,A549 [3],82
same,EGFR Y992-p protein expression,A549 [3],128
same,EGFR Y1045-p protein expression,A549 [3],23
same,EGFR protein expression,A549 [3],45
same,EPS15 protein expression,A549 [3],56
same,FAK protein expression,A549 [3],130
same,STAT5 protein expression,A549 [3],80
same,c-Abl protein expression,A549 [3],88
same,c-Fos protein expression,A549 [3],50
same,c-Src Y416-p protein expression,A549 [3],110
same,c-Src protein expression,A549 [3],94
same,hnRNP-K protein expression,A549 [3],83
same,p38 protein expression,A549 [3],62
same,p53 protein expression,A549 [3],59
same,p73 protein expression,A549 [3],55
same,Actin protein expression,CaCo2 [4],120
same,Cdc2-p34 protein expression,CaCo2 [4],74
same,EGFR Y992-p protein expression,CaCo2 [4],113
same,EGFR Y1045-p protein expression,CaCo2 [4],104
same,EGFR protein expression,CaCo2 [4],44
same,EPS15 protein expression,CaCo2 [4],79
same,FAK protein expression,CaCo2 [4],82
same,STAT5 protein expression,CaCo2 [4],120
same,c-Abl protein expression,CaCo2 [4],155
same,c-Fos protein expression,CaCo2 [4],164
same,c-Src Y416-p protein expression,CaCo2 [4],129
same,c-Src protein expression,CaCo2 [4],125
same,hnRNP-K protein expression,CaCo2 [4],90
same,p38 protein expression,CaCo2 [4],64
same,p53 protein expression,CaCo2 [4],69
same,p73 protein expression,CaCo2 [4],66
same,Genes regulated in common in A549 and CaCo2 (number),[5]; Fig. 4A,13
same,Significantly regulated genes (number),"[5]; IC50 concentration, 96 h, cell line not stated",approx. 150
